# Source: ChEMBL document CHEMBL1773045, “Conjugate (MTC-220) of muramyl dipeptide analogue and paclitaxel prevents both tumor growth and metastasis in mice” (J Med Chem, 2011)
# Active and inactive are the calls of the source. The calls are words filed in the database; no cut-off is given here.
# Key:
# [1] = test system: Mus musculus; test: Antimetastatic activity against mouse 4T1 cells xenografted in BALB/c mouse assessed as reduction of myeloid derived suppressor cells accumulation in spleen at 5 mg/kg, ip qd for 23 days by flow cytometry analysis relative to control; assay type: functional; design: scale not given: the % may be the effect or the level left; conditions: route intraperitoneal
# [2] = test system: NCI-H1975; test: Antitumor activity against human NCI-H1975 cells xenografted in nu/nu BALB/c mouse assessed as tumor growth inhibition at 30 mg/kg, ip qd for 12 days measured on day 25 relative to control; assay type: functional; conditions: route intraperitoneal, read-out: GI
# [3] = test system: MDA-MB-435; test: Growth inhibition of human MDA-MB-435 cells after 48 hrs by sulforhodamine B assay; assay type: functional; conditions: MDA-MB-435, 48 h
# [4] = test system: SR; test: Growth inhibition of human SR cells after 48 hrs by sulforhodamine B assay; assay type: functional
# [5] = test system: MDA-MB-468; test: Growth inhibition of human MDA-MB-468 cells after 48 hrs by sulforhodamine B assay; assay type: functional; conditions: MDA-MB-468, 48 h
# [6] = test system: MDA-MB-231; test: Growth inhibition of human MDA-MB-231 cells after 48 hrs by sulforhodamine B assay; assay type: functional; conditions: MDA-MB-231, 48 h
# [7] = test system: SF-268; test: Growth inhibition of human SF268 cells after 48 hrs by sulforhodamine B assay; assay type: functional; conditions: SF-268, 48 h
# [8] = test system: TK-10; test: Growth inhibition of human TK10 cells after 48 hrs by sulforhodamine B assay; assay type: functional; conditions: TK-10, 48 h
# [9] = test system: Mus musculus; test: Antimetastatic activity against mouse 4T1 cells xenografted in BALB/c mouse assessed as reduction of TGFbeta mRNA expression in tumor at 5 mg/kg, ip qd for 23 days by RT-PCR analysis; assay type: functional, organism-based; design: dose 5 mg/kg
# [10] = Growth inhibition of human Hs 578T cells after 48 hrs by sulforhodamine B assay; assay type: functional
# [11] = test system: K562; test: Growth inhibition of human K562 cells after 48 hrs by sulforhodamine B assay; assay type: functional; conditions: K562, 48 h
smiles,measurement,setting,value
CC(=O)O[C@H]1C(=O)[C@@]2(C)[C@H]([C@H](OC(=O)c3ccccc3)[C@]3(O)C[C@H](OC(=O)[C@H](OC(=O)CCC(=O)NCCCC[C@H](NC(=O)CC[C@H](NC(=O)[C@H](C)NC(=O)/C=C/c4ccc(Cl)cc4)C(N)=O)C(N)=O)[C@H](NC(=O)c4ccccc4)c4ccccc4)C(C)=C1C3(C)C)[C@]1(OC(C)=O)CO[C@@H]1C[C@@H]2O,Activity,[1],22%
same,inhibition in vivo at 30 mg/kg,[2],93.1%
same,GI50,[3],< 10 nM
same,GI50,[4],< 10 nM
same,GI50,[5],< 10 nM
same,GI50,[6],< 10 nM
same,GI50,[7],< 10 nM
same,GI50,[8],< 10 nM
same,Activity,[9],Active
same,GI50,[10],< 10 nM
same,GI50,[11],< 10 nM
